This note sets out measurements from patent US20120003151A1, “METHOD FOR EARLY IMAGING OF ATHEROSCLEROSIS” (priority 2009, published 2012).

Data set [1] concerns the target T1, folate receptor (Mus musculus, UniProt Q05685). As to the method: (§1) EC20-^99mTc was prepared as described (Leamon et al., Bioconjug Chem, 2002, 13(6): 1200-10; incorporated herein by reference). Vials containing lyophilized EC20 were heated at 100° C. for 5 min, after which two mL of a 925 MBq/mL solution of sodium pertechnetate (Cardinal Health) was added and the vial was heated for an additional 15 min. After dilution with the desired volume of saline, mice were injected i.p. with either 400 μL of imaging agent (18.5 MBq, ˜250 nmoles/Kg of EC20) or the same volume of imaging agent supplemented with 100-fold molar excess of free folic acid (to compete for unoccupied folate receptors). Unbound EC20-^99mTc was allowed to clear from the tissues for a period of four hours prior to imaging.
To analyze the accumulation of EC20-^99mTc in mouse aortas and heart tissues, mice were euthanized and thoracic aortas excised. Radioactivities were counted for 2 min using a gamma-counter (Packard). Results are reported as % ID/g tissue.
In order to assess whether EC20-^99mTc is in fact targeting these regions of enhanced atherosclerosis, thoracic aortas and hearts were dissected, and accumulation of EC20-^99mTc in the resected tissues was quantitated by gamma counting.

For the next data set, the system named is FR+ macrophages. The data set is described as follows: EC20-99mTc imaging after macrophage depletion with clodronate liposomes. It counts as in vivo. Particulars: apoE-/- mice, 8 weeks Western diet, 4 mg clodronate/dose i.p. daily for 5 days. As to the method:
PBS- and clodronate liposomes were synthesized as described (Buiting et al., J. Immunol. Methods, 1996, 192(1-2): 55-62; incorporated herein by reference). 86 mg egg phosphatidylcholine +8 mg cholesterol were dissolved in 1:1 chloroform:methanol. Solvent was evaporated using a rotoevaporator for 15 min, and the resulting film was rehydrated with PBS or a 0.6 M solution of clodronate (Sigma) in PBS for 2 hours. Resulting multi-lamellar vesicles were sonicated for 3 min and allowed to swell for 2 hours at 25° C. Liposomes were washed 3× with PBS by centrifugation at 100,000×g for 30 min and resuspended in 4 mL PBS. Liposomes were extruded 5× through both a 400 nm and 200 nm pore-size polycarbonate filter and stored at 4° C. until use. The resulting liposomes consisted of 7:1.3 molar ratio egg phosphatidylcholine:cholesterol, respectively. The efficiency of clodronate entrapment using this method was 7.8%.
For systemic elimination of macrophages, apoE−/− mice were fed a Western diet for a period of 8 weeks, after which 200 μL of PBS- or clodronate-liposomes (4 mg clodronate/dose) were injected i.p. daily for 5 days. After treatment, mice were injected i.p. with EC20-^99mTc and imaged, as described above.

In data set [2] the target is T1, folate receptor. Briefly: Radioimaging (gamma scintigraphy, ROI analysis) of EC20-99mTc in ApoE-/- mice. It counts as in vivo. Also on record: from tissue; host or cells: atherosclerotic aortas / aorto-cardiac region of living apoE-/- mice (lesion macrophages). As to the method:
as §1

Data set [3] has as its target T1, folate receptor. Briefly: Autoradiography and histology of aortas after EC20-99mTc injection. Also on record: from tissue; host or cells: atherosclerotic aortas / aorto-cardiac region of living apoE-/- mice (lesion macrophages). In kind it is in vivo, mice.
Experimental: In order to image areas of accumulation of EC20-^99mTc in atherosclerotic aortas, apoE−/− mice on a normal or Western diet were injected with EC20-^99mTc, euthanized, and thoracic aortas were excised. […] For cross sections, aortic roots and arches were cut and embedded in Tissue-Tek® O.C.T.™ mounting medium and frozen in liquid nitrogen. Serial sections were cut with a Leica CM1800 cryostat and placed on polylysine coated microscope slides (Thermo Scientific). Either whole aortas or aortic arch cross sections (40 μm) were exposed to a phosphor screen for 18 hours at 4° C. The phosphor screen was read using a Typhoon phosphorimager (GE Healthcare) at a resolution of 50 microns. Aortic tissue sections (10 m thick) adjacent to those used for autoradiography were also used for histology. H&E staining was performed to visualize lesion morphology. H&E staining of the sections was performed as follows.
The slides were fixed for 10 minutes in zinc-buffered formalin. The slides were washed with distilled water. The slides were immersed in Gills-3 hematoxylin for 5 minutes. The slides were rinsed in distilled water and dipped twice in acidic ethanol. The slides were rinsed for 30 seconds with distilled water and for 3 minutes in tap water. The slides were transferred to alcoholic Eosin Y for 20 seconds. The slides were rinsed with water and dehydrated in 2 changes of 95% ethanol, 2 changes of 100% ethanol, and 2 changes of xylenes (3 minutes per change). Coverslips were mounted using Permount™ mounting medium and allowed to dry overnight. Slides were visualized with a light microscope (4× objective). In some cases, the percentage of lumen occlusion was analyzed using ImageJ software (National Institutes of Health).
Staining with the macrophage-specific monoclonal antibody (Mac-3/CD107b; eBioscience Inc.) was performed as follows. Aortic arch sections were fixed with zinc-buffered formalin for 10 min, and endogenous biotin and peroxidase activity were blocked. Sections were incubated with anti-mouse CD107b antibody (1:50 dilution) for 1 h, and after washing, incubated with goat anti-rat biotinylated antibody (KPL Protein Research Products) at a 1:500 dilution for 30 min. After washing, streptavidin-HRP (BD Pharmingen) was added for an additional 30 min. Slides were developed with diaminobenzidine substrate (BD Pharmingen) according to manufacturer's instructions. Negative control consisted of slides developed in the absence of primary antibody. An Olympus BH-2 microscope coupled with a CCD camera was used to obtain light photomicrographs. […]

T1 sequence (Q05685 21-227): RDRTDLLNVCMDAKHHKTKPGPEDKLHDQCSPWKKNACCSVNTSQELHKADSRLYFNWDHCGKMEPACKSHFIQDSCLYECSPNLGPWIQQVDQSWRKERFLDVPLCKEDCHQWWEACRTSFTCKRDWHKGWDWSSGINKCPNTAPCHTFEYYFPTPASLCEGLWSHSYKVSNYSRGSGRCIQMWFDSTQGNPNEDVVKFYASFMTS

Turning to `Nc1nc2ncc(CNc3ccc(C(=O)N[C@H](CCC(=O)NC[C@H](N)C(=O)N[C@@H](CC(=O)O)C(=O)N[C@@H](CS)C(=O)O)C(=O)O)cc3)nc2c(=O)[nH]1` [EC20-^99mTc, metal not drawn], on folate receptor [1] (apoE-/- mice on Western diet, compared to non-competed controls), the “decrease of EC20-99mTc retention in the aortas by competition with excess folic acid” value is given as 41%. For the same molecule, the “accumulation in the aortas, higher on Western chow than normal diet” value at folate receptor [1] (apoE-/- mice, 25 weeks on diet, gamma counting) is recorded as ~120%. Moreover, in the data set with folate receptor [1] (mouse, in vivo), the “EC20-99mTc uptake in hearts relative to aortas” value is listed as “threefold lower”. Also, in the data set with FR+ macrophages, the “reduction of EC20-99mTc uptake by clodronate-liposome treatment relative to PBS-containing liposomes” value is reported as 65%. Also, the “signal intensity after pre-injection of 100-fold excess free folic acid” value at folate receptor [2] (apoE-/- mice on Western diet, 25 weeks, folic acid competition) is given as “reduced to near background levels”. For the same molecule, the “average increase in EC20-99mTc signal intensity in the aorto-cardiac region, Western diet compared to normal rodent chow” value at folate receptor [2] (apoE-/- mice, 25 weeks on diet, i.p., imaged after 4 h clearance) is given as ~70%. In addition, the “radioactivity in the aortic root and arch with 100-fold greater dose of free folic acid” value on folate receptor [3] (apoE-/- mice on Western diet, autoradiography) is listed as “significantly reduced”. Further, on folate receptor [3] (apoE-/- mice, 25 weeks Western chow, serial sections: H&E, Mac-3, autoradiography), the “correspondence of areas of high macrophage content and lesion formation with loci of elevated 99mTc emission” value is given as “invariably corresponded”. For the same molecule, at folate receptor [3] (apoE-/- mice, whole aortas, phosphorimager), the “uptake in the aortic root and arch by autoradiography, Western diet versus normal diet” value was “significantly greater uptake”.

Turning to `Nc1nc2ncc(CNc3ccc(C(=O)N[C@H](CCC(=O)NC[C@H](N)C(=O)N[C@@H](CC(=O)O)C(=O)N[C@@H](CS)C(=O)O)C(=O)O)cc3)nc2c(=O)[nH]1` [EC20], the “detectability of EC20 uptake in small, early, active atherosclerotic plaques” value on folate receptor [3] (ApoE-/- mice, Western Diet 0, 2, 12 or 26 weeks, H&E plaque size) is reported as “detectable”.
